The values below come from US7935709B2, “2-quinazolinone compounds and methods of use” (Amgen Inc., priority 2006, dated 2011).

Where only a bound is given, the exact number is not on record here.

The subject of assay [1] is TNF production by monocytes. Description: Lipopolysaccharide-Activated Monocyte TNF Production Assay (LPS induced TNF release). The conditions noted are these: Homo sapiens, LPS-activated adherent monocytes from PBMCs. The assay is classed as cell-based. How it is done: Lipopolysaccharide-Activated Monocyte TNF Production Assay
Test compounds were evaluated in vitro for the ability to inhibit the production of TNF by monocytes activated with bacterial lipopolysaccharide (LPS). Fresh residual source leukocytes (a byproduct of plateletpheresis) were obtained from a local blood bank, and peripheral blood mononuclear cells (PBMCs) were isolated by density gradient centrifugation on Ficol-Paque Plus (Pharmacia). PBMCs were suspended at 2×10^6/mL in DMEM supplemented to contain 2% FCS, 10 mM, 0.3 mg/mL […], 100 U/mL penicillin G and […] streptomycin sulfate (complete media). Cells were plated into Falcon flat bottom, 96 well culture plates (200 μL/well) and cultured overnight at 37° C. and 6% CO2. Non-adherent cells were removed by washing with 200 μl/well of fresh medium. Wells containing adherent cells (˜70% monocytes) were replenished with 100 μL of fresh medium.
Preparation of Test Compound Stock Solutions
Test compounds were dissolved in […]. Compound stock solutions were prepared to an initial concentration of […]. Stocks were diluted initially to 20-200 μM in complete media. Nine two-fold serial dilutions of each compound were then prepared in complete medium. Treatment of cells with test compounds and activation of TNF production with lipopolysaccharide.
One hundred microliters of each test compound dilution were added to microtiter wells containing adherent monocytes and 100 μL complete medium. Monocytes were cultured with test compounds for 60 min at which time 25 μL of complete medium containing 30 ng/mL lipopolysaccharide from E. coli K532 were added to each well. Cells were cultured an additional 4 hrs. Culture supernatants were then removed and TNF presence in the supernatants was quantified using an ELISA.
Flat bottom, 96 well Corning High Binding ELISA plates were coated overnight (4° C.) with 150 μL/well of 3 μg/mL murine anti-human TNF-α MAb (R&D Systems #MAB210). Wells were then blocked for 1 h at room temperature with 200 μL/well of CaCl2-free ELISA buffer supplemented to contain 20 mg/mL BSA (standard ELISA buffer: […], 150 mM NaCl, 2 mM CaCl2, 0.15 mM thimerosal, pH 7.4). Plates were washed and replenished with 100 μL of test supernatants (diluted 1:3) or standards. Standards consisted of eleven 1.5-fold serial dilutions from a stock of 1 ng/mL recombinant human TNF (R&D Systems). Plates were incubated at room temperature for 1 h on orbital shaker (300 rpm), washed and replenished with 100 μL/well of 0.5 μg/mL goat anti-human TNF-α(R&D systems #AB-210-NA) biotinylated at a 4:1 ratio. Plates were incubated for 40 min, washed and replenished with 100 μL/well of alkaline phosphatase-conjugated streptavidin (Jackson ImmunoResearch #016-050-084) at 0.02 μg/mL. Plates were incubated 30 min, washed and replenished with 200 μL/well of 1 mg/mL of p-nitrophenyl phosphate. After 30 min, plates were read at 405 nm on a Vmax plate reader.
Standard curve data were fit to a second order polynomial and unknown TNF-α concentrations determined from their OD by solving this equation for concentration. TNF concentrations were then plotted vs. test compound concentration using a second order polynomial. This equation was then used to calculate the concentration of test compounds causing a 50% reduction in TNF production.

Assay [2] has as its system TNF-α secretion by THP1 cells. Description: Lipopolysaccharide-Activated THP1 Cell TNF Production Assay (THP-cellular TNF release assay). The format is cell-based. The conditions noted are these: Homo sapiens, THP-1, LPS-activated THP1 cells. How it is done:
Lipopolysaccharide-Activated THP1 Cell TNF Production Assay
THP1 cells are re-suspended in fresh THP1 media (RPMI 1640, 10% heat-inactivated FBS, 1XPGS, 1XNEM, plus 30 μM βME) at a concentration of 1E6/mL. One hundred microliters of cells per well were plated in a polystyrene 96-well tissue culture. One microgram per mL of bacterial LPS is prepared in THP1 media and is transferred to the wells. Test compounds are dissolved in 100% DMSO and are serially diluted 3 fold in a polypropylene 96-well microtiter plate (drug plate). HI control and LO control wells contain only DMSO. One microliter of test compound from the drug plate followed by 10 μL of LPS were transferred to the cell plate. The treated cells are induced to synthesize and secrete TNF-α at 37° C. for 3 h. Forty microliters of conditioned media are transferred to a 96-well polypropylene plate containing 110 μL of ECL buffer (50 mM Tris-HCl pH 8.0, 100 mM NaCl, 0.05% Tween 20, 0.05% NaN3 and 1% FBS) supplemented with 0.44 nM MAB610 monoclonal Ab (R&D Systems), 0.34 nM ruthenylated AF210NA polyclonal Ab (R&D Systems) and 44 μg/mL sheep anti-mouse M280 Dynabeads (Dynal). After a 2 h incubation at room temperature with shaking, the reaction is read on the ECL M8 Instrument (IGEN Inc.). A low voltage is applied to the ruthenylated TNF-α immune complexes, which in the presence of TPA (the active component in Origlo), results in a cyclical redox reaction generating light at […]. The amount of secreted TNF-αin the presence of compound compared with that in the presence of DMSO vehicle alone (HI control) is calculated using the formula: % control (POC)=(cpd−average LO)/(average HI−average LO)*100. Data (consisting of POC and inhibitor concentration in μM) is fitted to a 4-parameter equation (y=A+((B−A)/(1+((x/C)^D))), where A is the minimum y (POC) value, B is the maximum y (POC), C is the x (cpd concentration) at the point of inflection and D is the slope factor) using a Levenburg-Marquardt non-linear regression algorithm.

In general, IC50 refers to the concentration at which inhibition is half-maximal. Read a low IC50 as greater potency.

For `O=c1ncc2cc(Cl)ccc2n1Cc1ccccc1` [Example 1, 1-Benzyl-6-chloroquinazolin-2-(1H)-one], the IC50 in assay [1] was not above 25 µM; in assay [2], not above 2.5 µM.
Take `COc1ccc(CN2Cc3cc(-c4cc(C(=O)NC5CC5)ccc4C)ccc3NC2=O)cc1` [Example 2, 3-(3-(4-Methoxybenzyl)-2-oxo-1,2,3,4-tetrahydroquinazolin-6-yl)-N-cyclopropyl-4-methylbenzamide]: the half-maximal inhibitory concentration (IC50) is not above 25 µM in assay [1] and not above 2.5 µM in assay [2].
`Cc1ccc(C(=O)NC2CC2)cc1-c1ccc2c(cnc(=O)n2-c2ccccc2Cl)c1` [Example 3] showed a half-inhibitory concentration (IC50) in assay [1] not above 25 µM.
On to `Cc1ccncc1-c1ccc2c(c1)CNC(=O)N2c1ccccc1Cl` [Example 4, 1-(2-Chlorophenyl)-6-(4-methylpyridin-3-yl)-3,4-dihydroquinazolin-2(1H)-one], for which the half-maximal inhibitory concentration (IC50) in assay [1] was not above 25 µM; in assay [2], not above 2.5 µM.
In turn, `Cc1ccc(C(=O)NC2CC2)cc1-c1ccc2c(c1)CNC(=O)N2c1ccccc1C` [Example 5, N-Cyclopropyl-4-methyl-3-(2-oxo-1-o-tolyl-1,2,3,4-tetrahydroquinazolin-6-yl)benzamide] came in with a half-maximal inhibitory concentration (IC50) in assay [1] not above 25 µM.
The compound `Cc1ccc(C(=O)NC2CC2)cc1-c1ccc2c(cnc(=O)n2-c2ccccc2C)c1` [Example 6, N-Cyclopropyl-4-methyl-3-(2-oxo-1-o-tolyl-1,2-dihydroquinazolin-6-yl)benzamide] gave a half-inhibitory concentration (IC50) in assay [1] not above 25 µM.
On the same count and under the same terms, next, `Cc1ccc(C(=O)NC2CC2)cc1-c1ccc2c(cnc(=O)n2CCN2CCOCC2)c1` [Example 8, N-Cyclopropyl-4-methyl-3-(1-(2-morpholinoethyl)-2-oxo-1,2-dihydroquinazolin-6-yl)benzamide]: not above 25 µM; `Cc1ccc(C(=O)NC2CC2)cc1-c1ccc2c(cnc(=O)n2C2CCN(C(=O)OC(C)(C)C)CC2)c1` [Example 10, tert-Butyl 4-(6-(5-(cyclopropylcarbamoyl)-2-methylphenyl)-2-oxoquinazolin-1(2H)-yl)piperidine-1-carboxylate]: not above 25 µM.
On to `Cc1ccc(C(=O)NC2CC2)cc1-c1ccc2c(c1)CNC(=O)N2c1ccccc1Cl` [Example 11, 3-(1-(2-chlorophenyl)-2-oxo-1,2,3,4-tetrahydro-6-quinazolinyl)-N-cyclopropyl-4-methylbenzamide], for which, in assay [1], the IC50 is not above 25 µM.
As to `Cc1ccc(C(=O)NC2CC2)cc1-c1cnc2c(c1)CNC(=O)N2c1ccccc1Cl` [Example 12, 3-(1-(2-chlorophenyl)-2-oxo-1,2,3,4-tetrahydropyrido[2,3-d]pyrimidin-6-yl)-N-cyclopropyl-4-methylbenzamide], the half-maximal inhibitory concentration (IC50) in assay [1] was not above 25 µM; in assay [2] it was not above 2.5 µM.
Turning to `Cc1ccc(C(=O)NC2CC2)cc1-c1ccc2c(cnc(=O)n2C2CCOCC2)c1` [Example 13, N-cyclopropyl-4-methyl-3-(2-oxo-1-(tetrahydro-2H-pyran-4-yl)-1,2-dihydro-6-quinazolinyl)benzamide], the IC50 in assay [1] is not above 25 µM.
